Legend:
human myeloma U266 cells = assay: Cell proliferation, U266 (Example 2); assay type: cell-based; details: U-266, U266, multiple myeloma, 72 hours, 0.1% DMSO, WST-1
Experimental: (§1) Human ovary cancer A2780 cells lines were seeded at a density of 5000 cells/well, human melanoma A375 cells were plated at a density of 2,500 cells/well, human colon carcinoma HCT15 cells were plated at a density of 3,000 cells/well, human prostate carcinoma PC3 cells were plated at a density of 1,500 cells/well, human breast carcinoma MCF7 cells were plated at a density of 5,000 cells/well, human breast carcinoma MDA MB 468 cells were plated at a density of 6,000 cells/well, human myeloma U266, RPMI8226 and CAG cells were plated at a density of 10,000 cells/well. All cells were plated in 96-well plates in 90 μl growth medium containing 10% FCS, 100 units/ml penicillin and 100 μg/ml streptomycin. Compound 3 was added a day later in […] of 1% DMSO in DDW to obtain final concentrations of 0, 0.1, 0.3, 1, 3, and 10 μM. The final concentration of DMSO (0.1% DMSO) was kept constant in all samples. […] The optical density values were read at 630 nm in ELISA plate reader. Non-adhered cells were exposed to WST-1 reagent for 5 hours following 72 hours treatment with the inhibitors, and optical density values were read at 630 nm in ELISA plate reader. The data was analyzed in Microsoft Excel, using the vehicle control as 100% proliferation. […]

[1] = test system: human myeloma RPMI8226 cells; assay: Cell proliferation, RPMI8226 (Example 2); assay type: cell-based; details: RPMI-8226, RPMI8226, multiple myeloma, 72 hours, 0.1% DMSO, WST-1
Experimental: as §1

IRS1 and IRS2 = IRS1 and IRS2 serine phosphorylation in A375 cells (western blot); assay type: cell-based, human; details: melanoma A375 cells treated 4 hr, 1 and 3 μM; FIG. 4
Experimental: (§2) Tyrosine autophosphorylation of the β-subunit of IGF-1R as well as downstream signaling induced by IGF-1R were assayed in human breast cancer MCF7 cells and in melanoma A375 cells. Cells were seeded in 6-well plates (250,000 A375 cells/well and 300,000 MCF7 cells/well) and 24 hours later medium was replaced by serum-free medium (RPMI supplemented with 100 units/ml penicillin and 100 μg/ml streptomycin). MCF7 cells were exposed for 48 hr to compound 3 at 10 μM concentration, and then stimulated for 5 minutes with 50 ng/ml IGF-1, washed twice with PBS and lysed by boiling sample buffer (10% glycerol, 50 mM Tris-HCl, pH 6.8, 3% SDS, and 5% (3-mercaptoethanol). Equal amounts of protein per lane were separated by 8% SDS-PAGE and transferred to a nitrocellulose membrane (Sartorius AG). Phosphorylated proteins were immunoblotted with anti-phosphoIGF-1R (pIGF-1R), anti-phosphotyrosine-IRS1 (pY-IRS I) and anti-phospho(T308)Akt (pPKB) antibodies. Detection was performed with horseradish peroxidase-conjugated secondary antibody using the ECL system. […]
(§3) In addition, lysates of human melanoma A375 cells were prepared from cells exposed to compound 3 at 1 and 3 μM concentrations in serum-free medium. […] In this experiment the phosphorylated form of IRS1 on Serine-636/639 and the levels of IRS2 were detected as well.

PKB/Akt = assay: IGF1-induced PKB/Akt activation in A375 cells (Example 3); assay type: cell-based, human; details: melanoma A375 cells treated 4 hr, 1 and 3 μM; FIG. 4
Experimental: as §2, §3

[2] = test system: human melanoma A375 cells; assay: Cell death (PARP cleavage) in A375 cells; assay type: cell-based
Experimental: The effect of compound 5 on IRS1 & IRS2 levels and its effect on IGF1-induced Akt/PKB activation and apoptosis in melanoma A375 cells were tested. Cells were seeded in 6-well plates (150,000 A375 cells/well) and 24 hours later medium was replaced by serum-free medium (RPMI supplemented with 100 units/ml penicillin and 100 μg/ml streptomycin), […], and then stimulated for 5 minutes with 50 ng/ml IGF-1, washed twice with PBS and lysed by boiling sample buffer (10% glycerol, 50 mM Tris-HCl, pH 6.8, 3% SDS, and 5% β-mercaptoethanol). Equal amounts of protein per lane were separated by 8% SDS-PAGE and transferred to a nitrocellulose membrane (Sartorius AG). To detect the inhibition of the Akt/PKB activation, phosphorylated proteins were immunoblotted with anti-phospho(T308)Akt (pT308-PKB) and anti-phospho-Tuberin/TSC2 (pTuberin) antibodies. To visualize cell death induced by compound 5, the intact and the cleaved PARP were immunoblotted with anti-PARP antibody. The changes in the levels of IRS1 and IRS2 were detected with specific antibodies. Detection was performed with horseradish peroxidase-conjugated secondary antibody using the ECL system. Blots were then stripped of antibodies, blocked with TBST with 5% low fat milk and re-probed with antibodies detecting both the phosphorylated and the non-phosphorylated Akt/PKB. […]

SMILES	IC50 (human myeloma U266 cells) [nM]	IC50 [1] [nM]	IRS1 and IRS2 serine phosphorylation (IRS1 and IRS2)	IGF1-induced PKB/Akt activation (PKB/Akt)	cell death (PARP cleavage) ([2]; 3 μM, 48 hr, FIG. 6A, 6B)	cell death (PARP cleavage) after washout ([2]; 5 μM for 4 hr, 24 hr following washout, FIG. 6C)
O=c1c(O)cc2cnc(/C=C/c3cc(O)c(O)c(Br)c3)sc-2c1O [Compound 3]	700	2000	induction of IRS1 and IRS2 serine phosphorylation	inhibition of IGF1-induced PKB/Akt activation		
O=c1c(O)cc2cnc(/C=C/c3ccc(O)c(O)c3Br)sc-2c1O [Compound 5]					induced cell death (PARP cleavage)	enough to trigger a process which leads to cell death
